Converted amounts (≈) assume the structure as drawn.
Key:
[1] = system: INH-resistant Mtb clinical isolate with katG S315T mutation; type: cell-based, Mycobacterium tuberculosis
[2] = system: INH-resistant Mtb clinical isolate with inhA promoter mutation; type: cell-based, Mycobacterium tuberculosis

Row | SMILES | MIC [1] | MIC [2]
1 | O=C(NN=Cc1ccc(N2CCN(c3ccccn3)CC2)cc1)c1ccncc1 [IP8, N′-(4-(4-(Pyridin-2-yl)piperazin-1-yl)benzylidene)isonicotinohydrazide] | 50 µM (≈ 19.3 µg/mL) | 1.56 µM (≈ 0.603 µg/mL)
2 | O=C(NN=Cc1ccc(N2CCN(c3ncccn3)CC2)cc1)c1ccncc1 [IP9, N′-(4-(4-(Pyrimidin-2-yl)piperazin-1-yl)benzylidene)isonicotinohydrazide] | 25 µM (≈ 9.69 µg/mL) | 3.12 µM (≈ 1.21 µg/mL)
3 | O=C(NN=Cc1ccc(N2CCN(C3CCCCC3)CC2)cc1)c1ccncc1 [IP11, N′-(4-(4-Cyclohexylpiperazin-1-yl)benzylidene)isonicotinohydrazide] | 12.5 µM (≈ 4.89 µg/mL) | 0.78 µM (≈ 0.305 µg/mL)
4 | COc1ccc(N2CCN(c3ccc(C=NNC(=O)c4ccncc4)cc3)CC2)cc1 [IP7, N′-(4-(4-(4-Methoxyphenyl)piperazin-1-yl)benzylidene)isonicotinohydrazide] | 100 µM (≈ 41.5 µg/mL) | 25 µM (≈ 10.4 µg/mL)
5 | NC(=O)C1CCN(c2ccc(C=NNC(=O)c3ccncc3)cc2)CC1 [IP13, 1-(4-((2-Isonicotinoylhydrazono)methyl)phenyl)piperidine-4-carboxamide] | 50 µM (≈ 17.6 µg/mL) | 1.56 µM (≈ 0.548 µg/mL)
6 | NNC(=O)c1ccncc1 [INH, isonicotinic acid hydrazide, reference compound] | 6.25 µM (≈ 0.857 µg/mL) | 1.56 µM (≈ 0.214 µg/mL)
7 | CN1CCN(c2ccc(C=NNC(=O)c3ccncc3)cc2)CC1 [IP10, N′-(4-(4-Methylpiperazin-1-yl)benzylidene)isonicotinohydrazide] | 25 µM (≈ 8.09 µg/mL) | 1.56 µM (≈ 0.505 µg/mL)
8 | CCOC(=O)C1CCN(c2ccc(C=NNC(=O)c3ccncc3)cc2)CC1 [IP12, Ethyl 1-(4-((2-isonicotinoylhydrazono)methyl)phenyl)piperidine-4-carboxylate] | 25 µM (≈ 9.51 µg/mL) | 1.56 µM (≈ 0.593 µg/mL)
